# Assay results published in ChEMBL document CHEMBL1201862, “PubChem BioAssay data set” (2004).
#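 Assay format: 96-well plates, 48-hour exposure. GI50 marks 50% less growth.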 The source made the active and inactive calls. No stated cut-off is given here; in the data, active = GI50 up to about 1.1 µM and inactive = higher.
# What was measured:
# Experiment in all cases: NCI-60 cell line screen, 48 h
# [1] = tested on: OVCAR-5
# [2] = tested on: SW-620
# [3] = tested on: UACC-62
# [4] = tested on: DU-145
# [5] = tested on: T47D
# [6] = tested on: OVCAR-8
# [7] = tested on: OVCAR-3
# [8] = tested on: M14
# [9] = tested on: SK-MEL-2
# [10] = tested on: SF-268
# [11] = tested on: SF-295
# [12] = tested on: UACC-257
# [13] = tested on: HT-29
# [14] = tested on: LOX IMVI
# [15] = tested on: SK-MEL-5
# [16] = tested on: PC-3
# [17] = tested on: RXF 393
# [18] = tested on: UO-31
# [19] = tested on: HOP-92
# [20] = tested on: A498
# [21] = tested on: KM12
# [22] = tested on: MDA-MB-231
# [23] = tested on: NCI-H23
# [24] = tested on: MOLT-4
# [25] = tested on: Malme-3M
# [26] = tested on: HCT-15
# [27] = tested on: MDA-MB-435
# [28] = tested on: U-251
# [29] = tested on: SNB-19
# [30] = tested on: CAKI-1
# [31] = tested on: NCI-H522
# [32] = tested on: IGROV-1
# [33] = tested on: SK-MEL-28
# [34] = tested on: HOP-62
# [35] = tested on: SR
# [36] = tested on: NCI-H226
# [37] = tested on: BT-549
# [38] = tested on: K562
# [39] = tested on: TK-10
# [40] = tested on: OVCAR-4
# [41] = tested on: Hs-578T
# [42] = tested on: A549
# [43] = tested on: EKVX
# [44] = tested on: NCI/ADR-RES
# [45] = tested on: NCI-H460
# [46] = tested on: ACHN
# [47] = tested on: HCC 2998
# [48] = tested on: SNB-75
# [49] = tested on: MDA-N
# [50] = tested on: RPMI-8226
# [51] = tested on: HL-60
# [52] = tested on: 786-0
# [53] = tested on: CCRF-CEM
# [54] = tested on: HCT-116
# [55] = tested on: SK-OV-3
# [56] = tested on: SF-539
# [57] = tested on: COLO 205
# [58] = tested on: SN12C
# [59] = tested on: MCF7
compound,measurement,setting,value
c1ccc2sc(SCN(C3CCCCC3)C3CCCCC3)nc2c1,GI50,[1],> 100 µM (inactive)
same,GI50,[2],> 100 µM (inactive)
same,GI50,[3],> 100 µM (inactive)
same,GI50,[4],> 100 µM (inactive)
same,GI50,[5],15.1 µM (inactive)
same,GI50,[6],> 100 µM (inactive)
same,GI50,[7],> 100 µM (inactive)
same,GI50,[8],> 100 µM (inactive)
same,GI50,[9],> 100 µM (inactive)
same,GI50,[10],> 100 µM (inactive)
same,GI50,[11],> 100 µM (inactive)
same,GI50,[12],> 100 µM (inactive)
same,GI50,[13],> 100 µM (inactive)
same,GI50,[14],> 100 µM (inactive)
same,GI50,[15],> 100 µM (inactive)
same,GI50,[16],> 100 µM (inactive)
same,GI50,[17],> 100 µM (inactive)
same,GI50,[18],> 100 µM (inactive)
same,GI50,[19],> 100 µM (inactive)
same,GI50,[20],> 100 µM (inactive)
same,GI50,[21],> 100 µM (inactive)
same,GI50,[22],> 100 µM (inactive)
same,GI50,[23],> 100 µM (inactive)
same,GI50,[24],> 100 µM (inactive)
same,GI50,[25],> 100 µM (inactive)
same,GI50,[26],> 100 µM
same,GI50,[27],> 100 µM (inactive)
same,GI50,[28],> 100 µM (inactive)
same,GI50,[29],> 100 µM (inactive)
same,GI50,[30],> 100 µM (inactive)
same,GI50,[31],> 100 µM (inactive)
same,GI50,[32],> 100 µM (inactive)
same,GI50,[33],> 100 µM (inactive)
same,GI50,[34],> 100 µM (inactive)
same,GI50,[35],> 100 µM (inactive)
same,GI50,[36],> 100 µM (inactive)
same,GI50,[37],> 100 µM (inactive)
same,GI50,[38],> 100 µM (inactive)
same,GI50,[39],> 100 µM (inactive)
same,GI50,[40],> 100 µM (inactive)
same,GI50,[41],> 100 µM (inactive)
same,GI50,[42],> 100 µM (inactive)
same,GI50,[43],> 100 µM (inactive)
same,GI50,[44],> 100 µM (inactive)
same,GI50,[45],> 100 µM (inactive)
same,GI50,[46],> 100 µM (inactive)
same,GI50,[47],> 100 µM (inactive)
O=C1C(Cl)=C(NCCc2ccc(O)cc2)C(=O)c2c(O)ccc(O)c21,GI50,[1],> 10 µM (inactive)
same,GI50,[2],> 10 µM (inactive)
same,GI50,[3],3.74 µM (inactive)
same,GI50,[4],> 10 µM (inactive)
same,GI50,[5],> 10 µM (inactive)
same,GI50,[6],> 10 µM (inactive)
same,GI50,[48],> 10 µM (inactive)
same,GI50,[7],4.8 µM (inactive)
same,GI50,[8],> 10 µM (inactive)
same,GI50,[9],8.28 µM (inactive)
same,GI50,[10],9.12 µM (inactive)
same,GI50,[11],9.82 µM (inactive)
same,GI50,[12],4.74 µM (inactive)
same,GI50,[13],4.27 µM (inactive)
same,GI50,[14],7.66 µM (inactive)
same,GI50,[15],3.72 µM (inactive)
same,GI50,[16],> 10 µM (inactive)
same,GI50,[19],> 10 µM (inactive)
same,GI50,[49],> 10 µM (inactive)
same,GI50,[21],7.28 µM (inactive)
same,GI50,[22],> 10 µM (inactive)
same,GI50,[50],> 10 µM (inactive)
same,GI50,[23],> 10 µM (inactive)
same,GI50,[24],> 10 µM (inactive)
same,GI50,[25],1.88 µM (inactive)
same,GI50,[26],> 10 µM
same,GI50,[27],4.36 µM (inactive)
same,GI50,[28],> 10 µM (inactive)
same,GI50,[29],> 10 µM (inactive)
same,GI50,[51],5.42 µM (inactive)
same,GI50,[30],> 10 µM (inactive)
same,GI50,[31],> 10 µM (inactive)
same,GI50,[52],9.46 µM (inactive)
same,GI50,[32],> 10 µM (inactive)
same,GI50,[53],4.34 µM (inactive)
same,GI50,[54],8.2 µM (inactive)
same,GI50,[34],6.56 µM (inactive)
same,GI50,[55],> 10 µM (inactive)
same,GI50,[36],> 10 µM (inactive)
same,GI50,[56],6.58 µM (inactive)
same,GI50,[37],> 10 µM (inactive)
same,GI50,[38],> 10 µM (inactive)
same,GI50,[39],> 10 µM (inactive)
same,GI50,[57],> 10 µM (inactive)
same,GI50,[40],> 10 µM (inactive)
same,GI50,[42],> 10 µM (inactive)
same,GI50,[43],> 10 µM (inactive)
same,GI50,[58],> 10 µM (inactive)
same,GI50,[44],3.76 µM (inactive)
same,GI50,[45],7.46 µM (inactive)
same,GI50,[59],4.13 µM (inactive)
same,GI50,[46],> 10 µM (inactive)
same,GI50,[47],> 10 µM (inactive)
CCC1OC2C(CC=C(C)C)=C3OC(C)(O)C(C)(CC)C(O)C3=C3OC(=O)C=C1C32 (stereo not given),GI50,[1],74.8 µM (inactive)
same,GI50,[2],39.4 µM (inactive)
same,GI50,[3],26.7 µM (inactive)
same,GI50,[4],50.5 µM (inactive)
same,GI50,[5],29 µM (inactive)
same,GI50,[8],30.8 µM (inactive)
same,GI50,[9],26.1 µM (inactive)
same,GI50,[10],27 µM (inactive)
same,GI50,[11],45.8 µM (inactive)
same,GI50,[12],33.9 µM (inactive)
same,GI50,[14],12.4 µM (inactive)
same,GI50,[15],28.4 µM (inactive)
same,GI50,[16],68.5 µM (inactive)
same,GI50,[18],25.4 µM (inactive)
same,GI50,[19],17.3 µM (inactive)
same,GI50,[20],> 100 µM (inactive)
same,GI50,[21],34.7 µM (inactive)
same,GI50,[22],19 µM (inactive)
same,GI50,[50],31.6 µM (inactive)
same,GI50,[23],21.6 µM (inactive)
same,GI50,[24],24.5 µM (inactive)
same,GI50,[26],33 µM
same,GI50,[27],67 µM (inactive)
same,GI50,[28],58.9 µM (inactive)
same,GI50,[29],54.6 µM (inactive)
same,GI50,[30],> 100 µM (inactive)
same,GI50,[52],37.2 µM (inactive)
same,GI50,[53],33.6 µM (inactive)
same,GI50,[33],50.8 µM (inactive)
same,GI50,[54],26.6 µM (inactive)
same,GI50,[55],> 100 µM (inactive)
same,GI50,[36],55.1 µM (inactive)
same,GI50,[56],15.8 µM (inactive)
same,GI50,[37],23 µM (inactive)
same,GI50,[38],10.8 µM (inactive)
same,GI50,[39],70.6 µM (inactive)
same,GI50,[57],29.9 µM (inactive)
same,GI50,[40],36.2 µM (inactive)
same,GI50,[42],37.6 µM (inactive)
same,GI50,[43],35.6 µM (inactive)
same,GI50,[44],42.8 µM (inactive)
same,GI50,[45],21.4 µM (inactive)
same,GI50,[59],31.3 µM (inactive)
same,GI50,[46],38.3 µM (inactive)
same,GI50,[47],27 µM (inactive)
COC(=O)c1cc2ccc(N)nc2[nH]c1=O,GI50,[1],> 100 µM (inactive)
same,GI50,[2],> 100 µM (inactive)
same,GI50,[5],> 100 µM (inactive)
same,GI50,[6],> 100 µM (inactive)
same,GI50,[48],> 100 µM (inactive)
same,GI50,[7],> 100 µM (inactive)
same,GI50,[8],> 100 µM (inactive)
same,GI50,[9],> 100 µM (inactive)
same,GI50,[10],> 100 µM (inactive)
same,GI50,[11],> 100 µM (inactive)
same,GI50,[12],> 100 µM (inactive)
same,GI50,[14],> 100 µM (inactive)
same,GI50,[15],> 100 µM (inactive)
same,GI50,[16],> 100 µM (inactive)
same,GI50,[17],> 100 µM (inactive)
same,GI50,[18],> 100 µM (inactive)
same,GI50,[19],> 100 µM (inactive)
same,GI50,[49],> 100 µM (inactive)
same,GI50,[20],> 100 µM (inactive)
same,GI50,[21],> 100 µM (inactive)
same,GI50,[22],> 100 µM (inactive)
same,GI50,[50],> 100 µM (inactive)
same,GI50,[23],> 100 µM (inactive)
same,GI50,[25],> 100 µM (inactive)
same,GI50,[26],> 100 µM
same,GI50,[27],> 100 µM (inactive)
same,GI50,[28],> 100 µM (inactive)
same,GI50,[29],> 100 µM (inactive)
same,GI50,[30],> 100 µM (inactive)
same,GI50,[31],> 100 µM (inactive)
same,GI50,[52],> 100 µM (inactive)
same,GI50,[32],> 100 µM (inactive)
same,GI50,[33],> 100 µM (inactive)
same,GI50,[54],> 100 µM (inactive)
same,GI50,[34],> 100 µM (inactive)
same,GI50,[55],> 100 µM (inactive)
same,GI50,[36],> 100 µM (inactive)
same,GI50,[56],> 100 µM (inactive)
same,GI50,[37],> 100 µM (inactive)
same,GI50,[39],> 100 µM (inactive)
same,GI50,[57],> 100 µM (inactive)
same,GI50,[40],> 100 µM (inactive)
same,GI50,[42],> 100 µM (inactive)
same,GI50,[43],> 100 µM (inactive)
same,GI50,[58],> 100 µM (inactive)
same,GI50,[44],> 100 µM (inactive)
same,GI50,[45],> 100 µM (inactive)
same,GI50,[59],> 100 µM (inactive)
same,GI50,[46],> 100 µM (inactive)
same,GI50,[47],> 100 µM (inactive)
